Assay results reported in ChEMBL document CHEMBL6115009.
Active and inactive are the calls of the source. The rule behind the calls is not given here.

How the values were obtained:
[1] = target: Glutamate NMDA receptor; GRIN1/GRIN2B (Homo sapiens) (UniProt Q05586+Q13224); assay: Antagonist activity at GluN1/GluN2B receptor (unknown origin) overexpressed in CHO cells assessed as inhibition of Ca2+ flux incubated for 24 hrs in presence of glycine/L-glutamate by FLIPR assay; format: cell-based
[2] = target: Ionotropic glutamate receptor NMDA 1/2C (Homo sapiens) (UniProt Q05586+Q14957); assay: Antagonist activity at GluN1/GluN2C receptor (unknown origin) overexpressed in CHO cells assessed as inhibition of Ca2+ flux incubated for 24 hrs in presence of glycine/L-glutamate by FLIPR assay; format: cell-based
[3] = target: Glutamate NMDA receptor; GRIN1/GRIN2A (Homo sapiens) (UniProt Q05586+Q12879); assay: Antagonist activity at GluN1/GluN2A receptor (unknown origin) overexpressed in CHO cells assessed as inhibition of Ca2+ flux incubated for 24 hrs in presence of glycine/L-glutamate by FLIPR assay; format: cell-based
[4] = target: Ionotropic glutamate receptor NMDA 1/2D (Homo sapiens) (UniProt Q05586+O15399); assay: Antagonist activity at GluN1/GluN2D receptor (unknown origin) overexpressed in CHO cells assessed as inhibition of Ca2+ flux incubated for 24 hrs in presence of glycine/L-glutamate by FLIPR assay; format: cell-based
[5] = target: Sodium-dependent serotonin transporter (Homo sapiens) (UniProt P31645); assay: Displacement of [3H]paroxetine from recombinant human SERT expressed in HEK293 cells at 1 to 10 uM incubated for 1 hr; format: cell-based; details: dose 1-10 µM
Sequence of Sodium-dependent serotonin transporter (Homo sapiens) (P31645 whole entry, looked up): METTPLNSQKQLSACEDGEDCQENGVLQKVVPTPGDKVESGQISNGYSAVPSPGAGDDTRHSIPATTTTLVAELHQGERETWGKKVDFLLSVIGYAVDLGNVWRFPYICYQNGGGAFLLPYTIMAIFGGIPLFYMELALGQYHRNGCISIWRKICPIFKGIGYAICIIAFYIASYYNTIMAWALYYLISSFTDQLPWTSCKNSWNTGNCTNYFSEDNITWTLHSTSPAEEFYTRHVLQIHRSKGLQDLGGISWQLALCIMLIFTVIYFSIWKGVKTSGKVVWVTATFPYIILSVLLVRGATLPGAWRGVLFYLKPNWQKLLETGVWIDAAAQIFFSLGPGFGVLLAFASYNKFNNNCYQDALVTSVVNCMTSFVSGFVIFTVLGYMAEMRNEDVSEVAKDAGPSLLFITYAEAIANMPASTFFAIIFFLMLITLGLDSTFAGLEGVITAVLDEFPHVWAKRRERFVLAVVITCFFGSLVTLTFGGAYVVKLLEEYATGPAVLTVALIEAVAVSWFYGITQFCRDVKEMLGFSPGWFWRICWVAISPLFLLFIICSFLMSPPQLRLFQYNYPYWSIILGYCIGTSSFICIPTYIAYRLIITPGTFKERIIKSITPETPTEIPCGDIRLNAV

[6] = target: T1, 5-hydroxytryptamine receptor 1A (Homo sapiens) (UniProt P08908); assay: Displacement of [3H]8-OH-DPAT from recombinant human 5-HT1A receptor expressed in CHO-K1 cells at 0.3 to 3 uM incubated for 1 hr; format: cell-based; details: dose 0.3-3 µM
T1 sequence (whole entry): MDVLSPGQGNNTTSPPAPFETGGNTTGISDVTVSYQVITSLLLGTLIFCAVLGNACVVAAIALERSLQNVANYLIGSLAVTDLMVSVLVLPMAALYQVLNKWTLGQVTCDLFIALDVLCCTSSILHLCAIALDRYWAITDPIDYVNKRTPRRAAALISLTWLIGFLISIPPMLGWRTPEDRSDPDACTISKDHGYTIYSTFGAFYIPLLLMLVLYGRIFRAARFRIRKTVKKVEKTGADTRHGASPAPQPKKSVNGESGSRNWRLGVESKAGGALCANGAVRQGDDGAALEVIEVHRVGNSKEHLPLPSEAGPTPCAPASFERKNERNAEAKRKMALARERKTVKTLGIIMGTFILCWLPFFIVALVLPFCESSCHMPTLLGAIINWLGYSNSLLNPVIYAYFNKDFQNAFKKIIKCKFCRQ

[7] = target: Glutamate NMDA receptor (Rattus norvegicus) (UniProt P35439+Q00959+Q00960+Q00961+Q62645+Q8VHN2+Q9R1M7); assay: Displacement of [3H]TCP from Wistar rat cerebral cortex NMDAR at 10 uM incubated for 1.5 hrs; format: tissue-based
[8] = Selectivity index, ratio of displacement of [3H]TCP from Wistar rat cerebral cortex NMDAR to displacement of [3H]diprenorphine from recombinant human mu opioid receptor expressed in CHO-K1 cells; format: cell-based
[9] = target: Sodium-dependent serotonin transporter (Homo sapiens) (UniProt P31645); assay: Displacement of [3H]paroxetine from recombinant human SERT expressed in HEK293 cells at 10 uM incubated for 1 hr; format: cell-based
[10] = target: Histamine H1 receptor (Homo sapiens) (UniProt P35367); assay: Displacement of [3H]pyrilamine from recombinant human histamine H1 receptor expressed in CHO-K1 cells at 10 to 30 uM incubated for 3 hrs; format: cell-based; details: dose 10-30 µM
Sequence of Histamine H1 receptor (Homo sapiens) (P35367 whole entry): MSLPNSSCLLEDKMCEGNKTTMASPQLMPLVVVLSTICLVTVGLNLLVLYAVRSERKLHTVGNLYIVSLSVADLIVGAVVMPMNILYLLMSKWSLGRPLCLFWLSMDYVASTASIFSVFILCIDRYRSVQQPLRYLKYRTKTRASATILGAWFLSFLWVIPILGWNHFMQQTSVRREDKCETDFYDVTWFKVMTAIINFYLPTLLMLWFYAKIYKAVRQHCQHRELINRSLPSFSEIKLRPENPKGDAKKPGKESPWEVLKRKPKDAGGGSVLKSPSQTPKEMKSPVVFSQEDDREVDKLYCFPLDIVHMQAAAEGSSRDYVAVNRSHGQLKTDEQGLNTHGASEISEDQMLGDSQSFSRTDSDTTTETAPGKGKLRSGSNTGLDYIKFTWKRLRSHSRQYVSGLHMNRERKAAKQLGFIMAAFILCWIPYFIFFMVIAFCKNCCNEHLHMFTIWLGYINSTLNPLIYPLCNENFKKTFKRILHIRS

[11] = target: Sigma non-opioid intracellular receptor 1 (Homo sapiens) (UniProt Q99720); assay: Displacement of [3H]pentazocine from sigma 1 receptor in human Jurkat cells at 0.3 to 3 uM incubated for 2 hrs; format: cell-based; details: dose 0.3-3 µM
Sequence of Sigma non-opioid intracellular receptor 1 (Homo sapiens) (Q99720 whole entry): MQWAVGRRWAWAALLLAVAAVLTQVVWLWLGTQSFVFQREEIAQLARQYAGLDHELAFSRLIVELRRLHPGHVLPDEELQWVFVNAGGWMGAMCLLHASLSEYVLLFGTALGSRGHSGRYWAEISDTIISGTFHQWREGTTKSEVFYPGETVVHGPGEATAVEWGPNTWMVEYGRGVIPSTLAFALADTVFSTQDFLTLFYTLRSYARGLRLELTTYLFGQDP

Row | SMILES | inhibition [1] | inhibition [2] | inhibition [3] | inhibition [4] | Activity [6] | Activity ([7]; filed as antagonist) | also measured
1 | C[C@H]1CC(c2ccccc2)(c2ccccc2)C(=O)N1C | inactive | inactive | inactive | inactive |  |  | 
2 | CC[C@H](O)C(C[C@H](C)N)(c1ccccc1)c1ccccc1 |  |  |  |  | inactive | Active | Activity [5]: Active
3 | C[C@H](CC(C(=O)O)(c1ccccc1)c1ccccc1)N(C)C | inactive | inactive | inactive | inactive |  |  | 
4 | CC[C@@H](O)C(C[C@@H](C)NC)(c1ccccc1)c1ccccc1 |  |  |  |  | inactive | Active | Ratio pKi [8]: 0.83; Activity [9]: Active
5 | CC[C@H](O)C(C[C@@H](C)NC)(c1ccccc1)c1ccccc1 |  |  |  |  | inactive | Active | Ratio pKi [8]: 0.98; Activity [9]: Active
6 | CCC1=[N+](C)[C@@H](C)CC1(c1ccccc1)c1ccccc1 | inactive | inactive | inactive | inactive |  |  | 
7 | CCC1=[N+](C)[C@H](C)CC1(c1ccccc1)c1ccccc1 | inactive |  | inactive |  |  |  | 
8 | CCC1=N[C@H](C)CC1(c1ccccc1)c1ccccc1 |  |  |  |  | inactive |  | Activity [7]: inactive
9 | CC[C@H](O)C(C[C@@H](C)N)(c1ccccc1)c1ccccc1 |  |  |  |  | inactive | Active | 
10 | CCC(=O)C(C[C@H](C)N(C)C)(c1ccccc1)c1ccccc1 |  |  |  |  | Active | Active | 
11 | CC[C@H](O)C(C[C@H](C)NC)(c1ccccc1)c1ccccc1 |  |  |  |  | inactive | Active; Compound Activity Comparable To (S)-Methadone | Activity [10]: Active; Compound Displayed Significant Activity Like (S)-Methadone; Activity [11]: Active
12 | C[C@@H](CC(C(=O)O)(c1ccccc1)c1ccccc1)N(C)C | inactive | inactive | inactive | inactive |  |  | 
13 | CC[C@@H](O)C(C[C@H](C)N)(c1ccccc1)c1ccccc1 |  |  |  |  | inactive | Active; Compound Activity Comparable To (S)-Methadone | Activity [5]: Active
14 | C[C@@H]1CC(c2ccccc2)(c2ccccc2)C(=O)N1C | inactive | inactive | inactive | inactive |  |  | 
15 | CC[C@@H](O)C(C[C@H](C)N(C)C)(c1ccccc1)c1ccccc1 | inactive | inactive |  | inactive |  |  | 
16 | CC[C@H](O)C(C[C@@H](C)N(C)C)(c1ccccc1)c1ccccc1 | inactive |  |  |  |  |  | 
